We go through 1 compound from patent US20230416330A1, “Optimized GIP Peptide Analogues” (Antag Therapeutics ApS, priority 2019, published 2023).

Data set [1] in a line: Physical stability: fibril formation in Thioflavin T (ThT) assay with agitation. It is filed as physicochemical. Conditions: TFA, 25° C., agitation. The method in brief:
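Read-out is continuous ThT fluorescence at 486 nm, with lag time taken where signal reaches 10% between pre- and post-transition baselines. Filtered samples (1, 5, 7.5 or 15 mg/ml; pH 7.4 phosphate buffer or NaOH-adjusted water) were stressed at 25° C. by orbital rotation at 300 rpm with one silica bead per well.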

The nature of data set [2]: Solubility by visual inspection of peptide solutions. It is filed as physicochemical. Conditions: TFA. A digest of the protocol: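 Solubility scored by eye: clear, colorless appearance after gentle mixing. Samples prepared at 1, 5, 7.5 or 15 mg/ml in either pH 7.4 water (NaOH-adjusted) or 50 mM sodium phosphate buffer, pH 7.4.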
The next data set deals with T1, human GIP receptor (Homo sapiens, UniProt P48546).
T1 construct: host or cells: HEK-293 cells, transient transfection (Lipofectamine 2000), cDNA in pCMV-Script vector
T1 sequence (P48546 22-466): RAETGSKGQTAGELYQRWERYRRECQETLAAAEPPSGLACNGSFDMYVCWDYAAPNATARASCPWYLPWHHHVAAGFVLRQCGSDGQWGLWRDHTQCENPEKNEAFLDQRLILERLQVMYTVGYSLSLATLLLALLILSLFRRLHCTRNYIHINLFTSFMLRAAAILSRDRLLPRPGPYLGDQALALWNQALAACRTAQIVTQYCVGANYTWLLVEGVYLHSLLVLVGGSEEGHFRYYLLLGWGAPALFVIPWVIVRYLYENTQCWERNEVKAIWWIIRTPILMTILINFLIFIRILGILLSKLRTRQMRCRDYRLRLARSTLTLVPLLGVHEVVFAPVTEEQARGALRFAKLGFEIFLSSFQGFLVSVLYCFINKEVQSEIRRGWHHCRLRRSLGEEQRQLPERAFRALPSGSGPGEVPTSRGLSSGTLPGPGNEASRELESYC
The experiment in a line: cAMP assay Alternative 3 (Schild analysis), antagonist potency pKb. It is filed as cell-based. On the procedure:
Antagonist potency was also determined by Schild analysis. GIP1-42 EC50 was measured in the absence of antagonist and EC50′ was measured in the presence of increasing concentrations of antagonist. These values were used to calculate a dose ratio (DR=EC50′/EC50) for each antagonist concentration, and log(DR-1) was plotted against log(antagonist concentration).
The in vitro functional assessment of compounds towards human GIP receptor was determined in HEK-293 cells transiently expressing the receptor. On the day of the assay, cells were resuspended in HBSS buffer (Gibco, 14025-50) supplemented with […] (Gibco, 15630-106), 0.1% Pluronic F-68 (Gibco, 24040-032) and 0.1% casein (Sigma, C4765), and plated in 384-well plates at a density of 3500 cells/well. […] The intracellular cAMP was quantitatively determined using the CisBio cAMP Dynamic 2 HTRF Assay Kit. […]
The cAMP-d2 conjugate and the antibody anti-cAMP-Cryptate, both diluted in lysis buffer provided in the kit, were added to the cells according to the manufacturer's protocol. The resulting competitive assay was incubated for 60 minutes at room temperature, and the signal was detected by using a PerkinElmer Envision® instrument with excitation at 320 nm and emission at 665 nm and 620 nm. […]
In general terms: cAMP levels reflect the balance of adenylyl cyclase and phosphodiesterase activity.

The structures appear in SMILES notation. Starred links: 1 amine or outer side, 2 acyl side, 3 side chain; linkers in the order of their positions; H or OH if unused. Residues, ends and D or L forms follow the SMILES beside them. *: point of attachment. C16 diacid = O=C(O)CCCCCCCCCCCCCCC(=O)*; Glutaryl = O=C(CCCC(=O)[*:2])[*:1]

The Kb is the equilibrium dissociation constant of an antagonist, usually derived from a functional assay. Read a high Kb as lower antagonist affinity.

In the case of `CC[C@H](C)[C@H](NC(=O)[C@H](CO)NC(=O)[C@H](Cc1ccc(O)cc1)NC(=O)[C@H](CC(=O)O)NC(=O)[C@H](CO)NC(=O)[C@@H](NC(=O)[C@H](Cc1ccccc1)NC(=O)[C@@H](NC(=O)CNC(=O)CCCC(=O)O)[C@@H](C)O)[C@@H](C)CC)C(=O)N[C@@H](C)C(=O)N[C@@H](CCSC)C(=O)N[C@@H](CC(=O)O)C(=O)N[C@@H](CCCCN)C(=O)N[C@H](C(=O)N[C@@H](CCCCNC(=O)CCCCCCCCCCCCCCC(=O)O)C(=O)N[C@@H](CCC(N)=O)C(=O)N[C@@H](CCC(N)=O)C(=O)N[C@@H](CC(=O)O)C(=O)N[C@@H](Cc1ccccc1)C(=O)N[C@H](C(=O)N[C@@H](CCC(=O)O)C(=O)N[C@@H](Cc1c[nH]c2ccccc12)C(=O)N[C@@H](CC(C)C)C(=O)N[C@@H](CC(C)C)C(=O)N[C@@H](C)C(=O)N[C@@H](CCC(N)=O)C(=O)N[C@@H](CCCCN)C(=O)N1CCC[C@H]1C(=O)N[C@@H](CO)C(=O)N[C@@H](CO)C(=O)NCC(=O)N[C@@H](C)C(=O)N1CCC[C@H]1C(=O)N1CCC[C@H]1C(=O)N1CCC[C@H]1C(=O)N[C@@H](CO)C(=O)O)C(C)C)[C@@H](C)CC` [AT762] (Glutaryl-GTFISDYSIAMDKIK(C16 diacid)QQDFVEWLLAQKPSSGAPPPS-OH), the “Avr lag time (h)” value was “fnd (Fnd = fibrils not detected within experiment time (96 hours) with agitation.)” in data set [1] (1 mg/ml, Phosphate (7.4)) and “fnd (Fnd = fibrils not detected within experiment time (96 hours) with agitation.)” in data set [1] (5 mg/ml, MilliQ). Moreover, the Visual appearance result in data set [2] (1 mg/ml, Phosphate (7.4)) was “Clear”; in data set [2] (5 mg/ml, MilliQ), “Clear”. The compound also came in with a Kb on human GIP receptor of 0.15 nM.
